Columns and labels:
[1] = system: NCI-H1048; experiment: Cell viability (CellTiter-Glo), NCI-H1048; assay type: cell-based; conditions: Homo sapiens; NCI-H1048 cell line, 3-4 days of culture
Description: (§1) Cell viability was detected using the Promega CellTiter-Glo kit, the kit reflected cell viability by directly measuring intracellular ATP content. The inhibitory effect (IC50 value) of Gboxin, a mitochondrial oxidative phosphorylation pathway inhibitor, on different tumor cell lines was tested in the Example. The name, source, and culture condition of each tumor cell line were as follows:
Cell line NCI-H1048 (ATCC, No. CRL-5853) was cultured in 5% fetal bovine serum-containing HITES medium (+P/S).
(§2) The above tumor cells were cultured in the relevant medium (+P/S), and incubated for 3 h, then the gradient diluted Gboxin was added, and IC50 (50% inhibiting concentration) was measured after 3-4 days of culture.

[2] = system: PANC-1; experiment: Cell viability (CellTiter-Glo), PANC-1; assay type: cell-based; conditions: Homo sapiens; PANC-1 cell line, 3-4 days of culture
Description: as §1
Cell line PANC-1 (ATCC, No. CRL-1469) was cultured in 10% fetal bovine serum-containing DMEM medium (+P/S).
as §2

[3] = system: NCI-H2081; experiment: Cell viability (CellTiter-Glo), NCI-H2081; assay type: cell-based; conditions: Homo sapiens; NCI-H2081 cell line, 3-4 days of culture
Description: as §1
Cell line NCI-H2081 (ATCC, No. CRL-5920) was cultured in 5% fetal bovine serum-containing HITES medium (+P/S).
as §2

[4] = system: COLO 320HSR; experiment: Cell viability (CellTiter-Glo), COLO 320HSR; assay type: cell-based; conditions: Homo sapiens; COLO 320HSR cell line, 3-4 days of culture
Description: as §1
Cell line COLO 320HSR (ATCC, No. CCL-220.1) was cultured in 10% fetal bovine serum-containing RPMI1640 medium (+P/S).
as §2

[5] = system: G-402; experiment: Cell viability (CellTiter-Glo), G-402; assay type: cell-based; conditions: Homo sapiens; G-402 cell line, 3-4 days of culture
Description: as §1
Cell line G-402 (ATCC, No. CRL-1440) was cultured in 10% fetal bovine serum-containing McCoy's 5a medium (+P/S).
as §2

[6] = system: 769-P; experiment: Cell viability (CellTiter-Glo), 769-P; assay type: cell-based; conditions: Homo sapiens; 769-P cell line, 3-4 days of culture
Description: as §1
Cell line 769-P (ATCC, No. CRL-1933) was cultured in 10% fetal bovine serum-containing RPMI1640 medium (+P/S).
as §2

[7] = system: WSU-DLCL2; experiment: Cell viability (CellTiter-Glo), WSU-DLCL2; assay type: cell-based; conditions: Homo sapiens, WSUDLCL2; WSU-DLCL2 cell line, 3-4 days of culture
Description: as §1, with “follows: Cell line WSU-DLCL2 (DSMZ, No. ACC-575) was cultured in 10% fetal bovine serum-containing RPMI1640 medium (+P/S). […] Cell viability was detected using the Promega CellTiter-Glo kit, the kit reflected cell viability by directly measuring intracellular ATP content.” for “follows:”

[8] = system: ATF4 stress pathway; experiment: Western Blot of ATF4 in tumor cells after inhibitor treatment; assay type: cell-based, human; conditions: 1 μM or 3 μM Gboxin, 1 μM Oligomycin A, 12 h; for activity of ATF4 stress pathway: FIG. 3; for ATF4 stress pathway (ATF4 content): FIG. 2
Description: The inhibition of mitochondrial oxidative phosphorylation pathway could cause the activation of ATF4 stress pathway and the decrease of mTOR pathway activity, the activity of the mTOR pathway was reflected by the expression level of phosphorylated ribosomal protein S6 (ie, p-S6).
(§3) The tumor cells NCI-H82, G-401 and WSU-DLCL2 were cultured in the relevant 10% FBS-containing medium (+p/s), and incubated overnight, then 1 μM Gboxin, 3 μM Gboxin or 1 μM Oligomycin A as shown in FIG. 2 was added. After 12 h of incubation, the content of ATF4 and p-S6 protein was detected using Western Blot, the experiment result was shown in FIG. 2.
as §3, with “The cell lines SF126, CFPAC-1” for “The tumor cells NCI-H82, G-401”, “and 786-O” for “and WSU-DLCL2”, “FIG. 3” for “FIG. 2”, “FIG. 3.” for “FIG. 2.”

[9] = system: Daoy; experiment: Cell viability (CellTiter-Glo), Daoy; assay type: cell-based; conditions: Homo sapiens; Daoy cell line, 3-4 days of culture
Description: as §1
Cell line Daoy (ATCC, No. HTB-186) was cultured in 10% fetal bovine serum-containing EMEM medium (+P/S).
as §2

[10] = system: CFPAC-1; experiment: Cell viability (CellTiter-Glo), CFPAC-1; assay type: cell-based; conditions: Homo sapiens; CFPAC-1 cell line, 3-4 days of culture
Description: as §1, with “follows: Cell line CFPAC-1 (ATCC, No. CRL-1918) was cultured in 10% fetal bovine serum-containing IMDM medium (+P/S). […] Cell viability was detected using the Promega CellTiter-Glo kit, the kit reflected cell viability by directly measuring intracellular ATP content.” for “follows:”

[11] = system: SU-DHL-2; experiment: Cell viability (CellTiter-Glo), SU-DHL-2; assay type: cell-based; conditions: Homo sapiens; SU-DHL-2 cell line, 3-4 days of culture
Description: as §1
Cell line SU-DHL-2 (ATCC, No. CRL-2956) was cultured in 10% fetal bovine serum-containing RPMI1640 medium (+P/S).
as §2

[12] = system: PC-3; experiment: Cell viability (CellTiter-Glo), PC-3; assay type: cell-based; conditions: Homo sapiens; PC-3 cell line, 3-4 days of culture
Description: as §1
Cell line PC-3 (ATCC, No. CRL-1435) was cultured in 10% fetal bovine serum-containing F-12K medium (+P/S).
as §2

[13] = system: NCI-H1155; experiment: Cell viability (CellTiter-Glo), NCI-H1155; assay type: cell-based; conditions: Homo sapiens; NCI-H1155 cell line, 3-4 days of culture
Description: as §1
Cell line NCI-H1155 (ATCC, No. CRL-5818) was cultured in serum-free ACL-4 medium (+P/S).
as §2

[14] = system: U-937; experiment: Cell viability (CellTiter-Glo), U-937; assay type: cell-based; conditions: Homo sapiens; U-937 cell line, 3-4 days of culture
Description: as §1
Cell line U-937 (ATCC, No. CRL-1593.2) was cultured in 10% fetal bovine serum-containing RPMI1640 medium (+P/S).
as §2

Q: Which results are given for CCc1n(CC(=O)O[C@@H]2C[C@H](C)CC[C@H]2C(C)C)c2ccccc2[n+]1C.[Cl-] [Gboxin]?
A: IC50 [1]: 4.34 µM; IC50 [2]: 12 µM; IC50 [3]: 13.9 µM; IC50 [4]: > 30 µM; IC50 [5]: 2.82 µM; IC50 [6]: > 30 µM; IC50 [7]: 0.682 µM; activity of ATF4 stress pathway ([8]; 786-O cells): no significant changes; activity of ATF4 stress pathway ([8]; CFPAC-1 cells): no significant changes; ATF4 stress pathway (ATF4 content) ([8]; G-401 cells): up-regulated; ATF4 stress pathway (ATF4 content) ([8]; NCI-H82 cells): up-regulated; activity of ATF4 stress pathway ([8]; SF126 cells): no significant changes; ATF4 stress pathway (ATF4 content) ([8]; WSU-DLCL2 cells): up-regulated; IC50 [9]: 9.72 µM; IC50 [10]: > 30 µM; IC50 [11]: 0.97 µM; IC50 [12]: 21.3 µM; IC50 [13]: 8.84 µM; IC50 [14]: 4.06 µM
